Holding throughout (test): inhibition of tumour cell growth, NCI panel, 48 h
Assay [1] has as its system BT-549 breast.
Assay [2] deals with EKVX NSCLC.
In assay [3] the test system is K-562 leukemia.
Assay [4] deals with KM12 colon.
For assay [5], the system named is MALME-3M melanoma.
Assay [6] relates to NCI-H226 lung.
Assay [7] deals with NCI-H460 lung.
Assay [8] deals with SF-295 CNS.
Assay [9] deals with SK-MEL-28 melanoma.
The subject of assay [10] is HS 578T breast.

≈ marks a conversion by molar mass, not a printed value.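 Five compound concentrations were applied to cells in 96-well plates for 48 hours; endpoints were derived by simple linear interpolation of the resulting dose-response curve. GI50 marks 50% less growth. TGI is the concentration that stops growth completely.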 Bounds are passed on as bounds.

Turning to `O=C(O)C(/C=C/c1ccco1)=N\Nc1nc(-c2ccc(Cl)cc2)cs1`, the GI50 was 16.9 µM in assay [1]; 17.1 µM in [2]; 13.5 µM in assay [3]; 11.2 µM in assay [4]; 35.8 µM in [5]; 9.41 µM in assay [6]. Besides, the GI50 in [7] was 8.36 µM; in assay [8] it was 0.842 µM; in assay [9], 25.7 µM. In addition, the TGI in assay [1] is more than 50 µM; in assay [2], more than 50 µM; in [3] it was more than 50 µM; in assay [4], more than 50 µM; in assay [5] it was more than 50 µM; in [6] it was 25.4 µM. In addition, the TGI in assay [7] was more than 50 µM; in [8] it was 4.23 µM; in [9] it was more than 50 µM.

In the case of `C/C(=N\NC(=S)N(C)C)c1ncc[nH]1`, the TGI is more than 100 µM in assay [2]; 21.2 µM in assay [3]; more than 100 µM in assay [4]; 21.6 µM in [5]; more than 100 µM in [7]; more than 100 µM in assay [8]. Besides, the TGI in assay [9] is more than 100 µM.

For `O=c1cc/c(=N\Nc2ccccc2)c(=O)/c1=N/Nc1ccccc1`, the GI50 in assay [1], in [2], in assay [3], in assay [4], in assay [5] and in assay [6] was more than 50 µM in each case. In addition, the GI50 in assay [7] and in assay [8] was more than 50 µM each time. Further, the TGI in assay [1], in assay [2], in assay [3], in assay [4], in assay [5] and in assay [6] was more than 50 µM each time. For the same compound, the TGI in assay [7] and in assay [8] was more than 50 µM throughout.

Turning to `OCCN(CO)CN(CN(CO)CCO)c1nc(N(CN(CO)CCO)CN(CO)CCO)nc(N(CN(CO)CCO)CN(CO)CCO)n1`, the GI50 in assay [2] was 1.42 ng/mL; in assay [10] it was 1.74 ng/mL (≈ 0.00233 µM); in assay [3], 0.559 ng/mL; in [4], 1.21 ng/mL; in assay [6], 1.25 ng/mL; in assay [7] it was 1.17 ng/mL. Moreover, the GI50 was 1.39 ng/mL in [8] and 1.05 ng/mL in [9]. Moreover, the TGI is 5.03 ng/mL in [2]; 45.1 ng/mL (≈ 0.0606 µM) in assay [10]; 10.6 ng/mL in [3]; 2.8 ng/mL in [4]; 2.72 ng/mL in assay [6]; 2.53 ng/mL in assay [7]. For the same compound, the TGI turned out to be 3.94 ng/mL in assay [8] and 1.88 ng/mL in assay [9].

Turning to `C/C(=N\NC(N)=S)c1ccc2c(c1)OCO2`, the TGI in assay [2], in [3], in [4], in assay [5], in [6] and in assay [7] was more than 100 µM each time. Besides, the TGI in [8] and in [9] was more than 100 µM throughout.

For the compound `COc1cc(C)cc2c1OC(c1ccccc1)CC2=O` (stereo unspecified), the GI50 in [1], in assay [2], in [3], in assay [4], in [5] and in assay [6] was more than 100 µM each time. For the same compound, the GI50 in assay [7], in [8] and in [9] was more than 100 µM in each case. Moreover, the TGI in [1], in assay [2], in assay [3], in [4], in assay [5] and in [6] was more than 100 µM throughout. Besides, the TGI in [7], in [8] and in assay [9] was more than 100 µM throughout.

For the compound `CC(=O)/C=C1/c2ccccc2N(C(C)=O)C1O` (stereo unspecified), the TGI in assay [2], in assay [3], in [4], in assay [7], in assay [8] and in assay [9] was more than 100 µM throughout.

For `Cc1cccc(C(C)(C)C)c1NC(=O)CC1C(=O)Nc2ccccc2S1=O` (stereo unspecified), the TGI in assay [3], in assay [4], in assay [5], in assay [6], in [7] and in [8] was more than 100 µM in each case. Moreover, the TGI in assay [9] is more than 100 µM.

Take `CCc1ccccc1NC(=O)CCc1nc(=S)[nH][nH]1`: the TGI in assay [3], in assay [4], in [5], in assay [6], in assay [7] and in assay [8] was more than 100 µM each time. Also, the TGI in [9] is more than 100 µM.

Take `COc1ccc(C2(CN(C)C)COc3cc(OC)c(OC)cc3C2=O)cc1OC` (stereo unspecified): the TGI in assay [2], in assay [3], in assay [4], in assay [5], in assay [6] and in assay [7] was more than 100 µM throughout. For the same compound, the TGI in [8] and in assay [9] was more than 100 µM each time.

Take `O=c1c2cc(Br)ccc2oc2ccc(Br)cc12`: the TGI in assay [1], in [3], in assay [4], in assay [5], in assay [6] and in assay [7] was more than 100 µM in each case. In addition, the TGI in [8] and in [9] was more than 100 µM each time.

For `COc1cc2c(cc1OC)-c1c(cnn1C1OC(COC(C)=O)C(OC(C)=O)C(OC(C)=O)C1OC(C)=O)CC2` (stereo unspecified), the TGI in [2], in assay [3], in [4], in assay [6], in assay [7] and in assay [8] was more than 100 µM throughout. In addition, the TGI in [9] was more than 100 µM.

For the origin of these results see PubChem BioAssay (NCI).
